“Also recorded” adds a separate entry of the source.
Tests used:
[1] = test system: FXR-null mice; experiment: chronic PO fexaramine in HFD fed FXR-null mice; format: in vivo; settings: 100 mg/kg 5 week with HFD
Description: Data represent the mean±SD. Statistical analysis was performed with the Student's t test. *p<0.05, **p<0.01.
Therefore, glucose tolerance tests (GTTs) and insulin tolerance tests (ITTs) were performed to determine if glucose homeostasis was improved in fexaramine-treated DIO mice.

[2] = test system: pancreatic islets gene expression; experiment: RNA-Seq of pancreatic islets of treated ob/ob mice; format: in vivo; settings: fexaramine 100 mg/kg 5 weeks, analogs 50 mg/kg 2 weeks
Description: Pancreatic islets were isolated from ob/ob mice after daily treatment by oral gavage with fexaramine (100 mg/kg for 5 weeks), FEX-D (50 mg/kg for 2 weeks) or SALK110 (NSSK00110, 50 mg/kg for 2 weeks). Changes in gene expression were determined by RNA-Seq.

[3] = test system: diet-induced obesity (DIO) mice; experiment: chronic PO fexaramine in diet-induced obesity (DIO) mice; format: in vivo; settings: for glucose tolerance and insulin sensitivity (GTT, ITT): PO 5 weeks
Description: FIGS. 2A-2G are graphs illustrating the reduction of diet-induced obesity and improvement in metabolic homeostasis with fexaramine. […] Data represent the mean±STD. Statistical analysis was performed with the Student's t test (*p<0.05, **p<0.01).
The physiological effects of fexaramine in established obesity (diet-induced obesity, DIO) models were evaluated. […]

[4] = test system: serum bile acid composition; experiment: serum bile acid composition by mass spectrometry in HFD mice; format: in vivo; settings: 100 mg/kg/day per os 5 week
Description: Mice fed a HFD for 14 weeks were maintained on a HFD and treated with vehicle or fexaramine (100 mg/kg/day per os for 5 week). Serum bile acid composition was determined by mass spectrometry. N.D not determined.

[5] = test system: FXR target gene expression; experiment: FXR target gene expression (qPCR) in tissues after PO or IP fexaramine; format: in vivo, C57BL/6J mice; settings: for FXR target gene (SHP) expression in liver and kidney, IP versus PO / FXR target genes (IBABP, OSTα, FGF15) in the intestine / FXR target genes in liver or kidney: 100 mg/kg; for FXR target genes (IBABP, OSTα, FGF15) in the intestine / FXR target genes in liver or kidney: PO
Description: FIGS. 1A-1C are a comparative expression chart and two bar charts, respectively, illustrating increased levels of FXR target gene expression in the intestine relative to expression in the liver and kidney. 8 week-old C57BL/6J mice were treated with vehicle or fexaramine (100 mg/kg) via oral (PO) or intraperitoneal (IP) injection for three days (FIGS. 1A-1B) or five days (FIG. 1C).
FXR target gene expression was analyzed by qPCR. Gene expression was normalized against a vehicle-treated group.
Upon exploration of the in vivo effects of fexaramine (Fex) administration, it was discovered that due to ineffectual absorption, oral (PO) and intraperitoneal (IP) drug delivery produced very different effects (FIGS. 1D and 1E).

[6] = test system: ob/ob mice; experiment: fexaramine and deuterated analogs in ob/ob mice, 2 weeks; format: in vivo; settings: 2 weeks at 50 mg/kg PO
Description: An in vivo study of fexaramine and selectively-deuterated fexaramine compounds (FIG. 29A) was performed. Briefly, ob/ob mice were treated daily with vehicle, Fex, or deuterated analogs (50 mg kg^−1) by oral (PO) gavage for 2 weeks. Subsequently, body weight, body temperature, fasting blood glucose and insulin levels, insulin secretion, and GLP1 section were measured, and glucose tolerance tests (GTTs) performed.

## COC(=O)/C=C/c1cccc(N(Cc2ccc(-c3ccc(N(C)C)cc3)cc2)C(=O)C2CCCCC2)c1 [Fexaramine, fexaramine]
[1]
  Fex-induced changes in gene expression and metabolic homeostasis: abrogated
[2]
  gene induction in islets (intracellular signaling, insulin secretion, exocytosis): induce a common set of genes
[3]; DIO mice
  BAT expression of ERRγ, PGC-1α, PGC-1β and target genes: induction
  PKA activity in BAT: increased PKA activity
  accumulation of lipid vesicles in brown adipose tissue (BAT): markedly reduced
  activity (ambulatory counts): more active than control mice
  bile acid pool size: reducing
  brown fat-like signature genes and respiratory capacity of stromal vascular fraction of inguinal adipose tissue: increased
  circulating FGF15: increase
  expression of TNFα, MCP-1, IL-1α and F4/80 in visceral and brown adipose depots: reduced
  fraction of lithocholic acid in circulating bile acids: increasing
  fraction of taurocholic acid in circulating bile acids: decreasing
  levels of IKK-ε and TBK1 in adipose tissue: reduced levels
  liver lipid droplets (histology): reduction in lipid droplets
  mTORC1 pathway, S6K phosphorylation in gonadal WAT: reduced S6K phosphorylation
  phosphorylation level of p38 in BAT: increased
  ratio of unconjugated to conjugated cholic acid: remarkably increased
  respiratory exchange ratio: No changes
  serum alanine aminotransferase (ALT) levels: decreased
  serum lactate levels: significantly decreased
  glucose tolerance and insulin sensitivity (GTT, ITT): improved glucose clearance; also recorded: improved insulin sensitivity
[3]; DIO mice, 100 mg/kg PO 5 weeks
  glucose, insulin, leptin, cholesterol and resistin levels: reduced
  increase of core body temperature: approximately 1.5 °C
  overall fat mass (MRI): reduced overall fat mass
  serum inflammatory cytokines TNFα, IL-1α, IL-1β, IL-17 and MCP-1: markedly decreased
  weight gain: prevented weight gain
  wet weights of subcutaneous and visceral adipose depots: significant reductions
[3]; DIO mice, 10, 50 or 100 mg/kg PO 5 weeks
  prevention of weight gain over doses: dose-dependent manner
[3]; DIO mice, listed as Fex
  glucose tolerance and insulin sensitivity (GTT, ITT): dose-dependent improvements
  respiratory exchange ratio: similar
  serum lactate levels: significantly reduced
[3]; DIO mice, RNA-Seq
  FGF15 expression in ileum: dramatically upregulated
[3]; DIO mice, RNA-sequencing
  OXPHOS gene changes in inguinal, gonadal and brown adipose depots: selectively enhance OXPHOS activity only in BAT
[3]; DIO mice, chronic treatment
  HSL phosphorylation and serum levels of free fatty acids: pronounced increase
  cross-sectional area of adipocytes in visceral depots: markedly reduced
  expression of mucosal defense genes Occludin and Muc2: increased expression
  hepatic CYP7A1 expression (mRNA and protein): significantly repressed
  hepatic expression of CYP8B1 and CYP27A1: not affected
  hepatic expression of gluconeogenic and lipogenic genes: reduced
  hepatic triglycerides: marked decrease
  liver FXR target genes SHP and BSEP: not altered
  serum catecholamine levels and β3-adrenergic receptor expression: increased
[3]; DIO mice, highest dose
  weight gain at the highest dose: almost completely abrogated
[3]; DIO mice, immunohistochemistry
  abundance of multi-locular, UCP1-expressing adipocytes in inguinal adipose tissue: substantial increase
[3]; DIO mice, versus vehicle
  food intake: not attributable to difference in food intake
[3]; DIO mice, weight-matched
  carbon dioxide production (VCO2): exhaled more carbon dioxide
  oxygen consumption (VO2): consistently higher
[3]; mouse, in vivo, po
  intestinal toxicity (histology of ileum and colon): no signs of intestinal toxicity
[4]
  Bile Acid Composition (%): CA: 7.51%
  Bile Acid Composition (%): CDCA: 2.51%
  Bile Acid Composition (%): DCA: 7.67%
  Bile Acid Composition (%): GLCA: 0.51%
  Bile Acid Composition (%): HDCA: 0.36%
  Bile Acid Composition (%): LCA: 28.13%
  Bile Acid Composition (%): T-UDCA: 3.07%
  Bile Acid Composition (%): T-beta MCA: 29.16%
  Bile Acid Composition (%): TCA: 12.23%
  Bile Acid Composition (%): TCDCA: 1.13%
  Bile Acid Composition (%): TDCA: 1.02%
  Bile Acid Composition (%): UDCA: 0.05%
  Bile Acid Composition (%): omega MCA: 6.65%
[5]
  FXR target gene (SHP) expression in liver and kidney, IP versus PO: increases
  FXR target genes (IBABP, OSTα, FGF15) in the intestine: substantially enhances
  FXR target genes in liver or kidney: intestinally-restricted; also recorded: not in the liver or kidney
[5]; listed as Fex
  FXR target gene (SHP) expression in liver and kidney, IP versus PO: only seen in liver and kidney after IP treatment
  FXR target genes (IBABP, OSTα, FGF15) in the intestine: induced multiple FXR target genes in the intestine
  FXR target genes in liver or kidney: failed to affect
[5]; acute PO and IP, 100 mg/kg for five days
  induction of FXR target gene SHP throughout the intestine: robust induction
[6]
  body weight: do not affect body weight
  core body temperature: did increase core body temperature
  fasting blood glucose levels: does not significantly affect

— patent publication US20190084939A1, “ANALOGS OF FEXARAMINE AND METHODS OF MAKING AND USING” (Salk Institute for Biological Studies, priority 2014, published 2019)
